Reference: patent US7556938B1, “Nucleic acids encoding potassium channel interactors” (Millennium Pharmaceuticals, Inc., priority 1998, dated 2009)

Legend:
Kv1.1/Kvβ1 = target: T1, Kv1.1/Kvβ1 (Rattus norvegicus, UniProt P10499); assay: AA modulation of Kv1.1/Kvβ1 current in Xenopus oocytes; assay type: cell-based; conditions: Kv1.1/Kvβ1, 10 μM AA, listed as AA
T1 construct: expressed in transfected cells; host or cells: Xenopus oocytes
Description: Frogs underwent no more than two surgeries and surgeries were performed by well established techniques. Frogs were anesthetized with ice. Total cRNA (1-10 ng) was injected into stage IV Xenopus oocytes that were harvested the previous day. The Xenopus oocytes were incubated in ND96 containing (in mM) 96 NaCl, 2 KCl, 1.8 CaCl2, 1 MgCl2, 5 HEPES, pH 7.6, plus (Gentamycin 50 μg/ml) at 18° C. Xenopus oocytes were studied 3-7 days after injection. The two-electrode voltage-clamp recordings were performed in ND96 solution using a TURBO TEC 03 Clamp Amplifier (ALA Scientific Instruments, Westbury, N.Y.). Both electrodes were filled with 3 M KCl and had electrode resistances ranging from 0.2-1 MOhm. The current signals were filtered at 1000 Hz before transferred on a PC (Gateway, Calif.) using the PULSE software (HEKA, Germany).
In this example, the foregoing was tested by measuring two alpha/auxiliary complexes: Kv4.3/KChIP1 and Kv1.1/Kvβ1. (Kvβ1, which is one of the classic potassium channel beta subunits, dramatically changes Kv1.1 kinetics). Kv4.3/KChIP and Kv1.1/Kvβ1 were expressed respectively in Xenopus oocytes and their resulting currents were recorded in the presence or absence of […] AA. […] Kinetically, […] was much more sensitive to AA modulation than was Kv1.1/Kvβ1 (Table 4).

Kv4.3 = assay: Fatty acid modulation of Kv4.3 current (Kv4.3 alone) in Xenopus oocytes; assay type: cell-based, rat
Description: Frogs underwent no more than two surgeries and surgeries were performed by well established techniques. Frogs were anesthetized with ice. Total cRNA (1-10 ng) was injected into stage IV Xenopus oocytes that were harvested the previous day. The Xenopus oocytes were incubated in ND96 containing (in mM) 96 NaCl, 2 KCl, 1.8 CaCl2, 1 MgCl2, 5 HEPES, pH 7.6, plus (Gentamycin 50 μg/ml) at 18° C. Xenopus oocytes were studied 3-7 days after injection. The two-electrode voltage-clamp recordings were performed in ND96 solution using a TURBO TEC 03 Clamp Amplifier (ALA Scientific Instruments, Westbury, N.Y.). Both electrodes were filled with 3 M KCl and had electrode resistances ranging from 0.2-1 MOhm. The current signals were filtered at 1000 Hz before transferred on a PC (Gateway, Calif.) using the PULSE software (HEKA, Germany). In this Example, the hypothesis that […] were the missing auxiliary subunits that accounted for the above kinetic discrepancy was investigated by expressing Kv4 alone or together with […] in both CHO cells and Xenopus oocytes, and measuring their inactivation time constants (using art known techniques as described in, for example, An et al. (2000) Nature 403:553-6; Keros, S. and […]. Neuroscience 17: 3476-87; and Villarroel, A. and […]. Neuroscience 16:2522-32). The effects of different concentrations of arachidonic acid on Kv4/KChIP current was studied in Xenopus oocytes. Because the physiological concentrations of arachidonic acid are often under 10 μM (Needleman, et al., 1986 Annu Rev Biochem 55:69-102; Anderson and Welsh, 1990, Proc Natl Acad Sci USA 87:7334-8; Meves, 1994, Prog Neurobiol 43:175-86), arachidonic acid was tested in the 1-10 μM range. […] Further, the slope of amplitude reduction as a function of increasing concentrations was very similar with or without the presence of […]. […] Villarroel and Schwarz, (1996) J.

T1 sequence (P10499 whole entry): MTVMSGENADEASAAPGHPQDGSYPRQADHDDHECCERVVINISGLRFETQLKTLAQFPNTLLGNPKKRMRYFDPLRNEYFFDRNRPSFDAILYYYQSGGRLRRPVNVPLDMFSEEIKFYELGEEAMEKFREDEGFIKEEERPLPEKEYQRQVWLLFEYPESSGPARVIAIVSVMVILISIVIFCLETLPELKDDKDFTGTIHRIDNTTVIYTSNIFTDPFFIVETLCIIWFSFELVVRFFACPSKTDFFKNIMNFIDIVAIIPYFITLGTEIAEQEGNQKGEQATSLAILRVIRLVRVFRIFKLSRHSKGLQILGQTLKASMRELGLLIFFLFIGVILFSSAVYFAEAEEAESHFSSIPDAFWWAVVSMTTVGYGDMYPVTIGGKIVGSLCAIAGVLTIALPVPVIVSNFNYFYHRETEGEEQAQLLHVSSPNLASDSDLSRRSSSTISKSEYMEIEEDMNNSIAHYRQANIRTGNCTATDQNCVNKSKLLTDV

CCCCC/C=C\C/C=C\C/C=C\C/C=C\CCCC(=O)O [arachidonic acid]
Inactivation time constant (ms ± SEM) (Kv1.1/Kvβ1): 9 ± 1 ms
Peak amplitude (μA ± SEM) (Kv1.1/Kvβ1): 14±1 μA
Inactivation time constant (ms ± SEM) (Kv4.3; Kv4.3 alone, 10 μM AA): 66 ± 6 ms
Peak amplitude (μA ± SEM) (Kv4.3; Kv4.3 alone, 10 μM AA): 13 ± 1 μA
block of Kv4.3 peak amplitude (Kv4.3; Kv4.3 alone, 10 μM fatty acid, vs no-fatty acid control): inhibited significantly
block of Kv4.3 peak amplitude (Kv4.3; Kv4.3 alone, 1-10 μM arachidonic acid): concentration-dependent block
effect on inactivation time constant (Kv4.3; absence of KChIP1, 1-10 μM arachidonic acid): unchanged at all arachidonic acid concentrations tested
